Measured values from US12331121B2, “Efflux pump-cancer antigen multi-specific antibodies and compositions, reagents, kits and methods related thereto” (William Robert Arathoon Living Trust Dated August 29, 2016, priority 2019, dated 2025).
Read-outs that look alike come from different tables or passages of the source.

Key:
[1] = tested on: multidrug resistant N6ADR cells; assay: N6ADR tumor volume in mice (Example 2, FIG. 9); type: in vivo; settings: for effect on tumor volume with paclitaxel (chemosensitization): antibody dosed about 1-4 hrs prior to paclitaxel; for effect on tumor volume without paclitaxel: antibody on day 0, 4, 7, 11, no chemotherapeutic agent
Procedure: N6ADR cells were injected into a cohort of 6 mice per test group prior to administration of the indicated antibodies. The antibodies were administered once palpable tumors reached a size of about 100-150 mm^3 (about 7 days after injection of tumor cells). Antibodies were administered on day 0, day 4, day 7, and day 11. Tumor volumes were measured and are plotted. Panel A: 15D3/MRK16 monoclonal anti-MDR1 antibody. Panel B: KT14/MRK16 monoclonal anti-CD47 antibody. Panel C: Co-administration of 15D3/MRK16 monoclonal anti-MDR1 antibody and KT14/MRK16 monoclonal anti-CD47 antibody. Panel D: KbisP1.1 antibody.
The indicated antibodies were administered with or without the chemotherapeutic agent paclitaxel. Antibody was dosed about 1-4 hrs prior to Paclitaxel.

[2] = tested on: human red blood cells (RBCs); assay: Binding to human erythrocytes; settings: FIG. 22A; in contrast to anti-CD47 5F9
cynomolgus RBCs = assay: Binding to cynomolgus erythrocytes; settings: FIG. 22B; in contrast to anti-CD47 5F9
N6/ADR cells = assay: Vincristine cytotoxicity assay; type: cell-based; settings: Homo sapiens; Table 5; vincristine titrated with antibody at 100 μg/mL (2× final concentration); 72 hr
Procedure: Cytotoxicity Assays. The effect of antibodies on vincristine cytotoxicity was evaluated on N6/ADR, a doxorubicin-selected, B1-positive variant of the human acute lymphoblastic leukemia (ALL) cell line, NALM6. Cells were plated in 0.05 mL of Assay Media (RPMI-1640+10% FBS) at 5000 cells/well in white flat bottom 96-well tissue culture plates. Vincristine was prepared at 2× final assay concentration by serial dilution from 200 uM in assay media containing test antibodies or control antibodies at 100 μg/mL (2× final concentration), or valspodar, a small molecule B1 inhibitor at 7 uM (2× final concentration). An equivalent volume (0.05 mL) of the vincristine/antibody mixture was added to the N6/ADR cells in 96-well plates. The plates were then incubated at 37° C., in 5% CO2. After 72 hr plates were equilibrated to room temperature and cell viability assessed using Promega® CellTiter-Glo® Luminescent Cell Viability Assay according to the manufacturer's recommended protocol. Luminescence was measured on a Molecular Devices® FlexStation® 3 Multi-Mode Microplate Reader and data analyzed using GraphPad Prism 8.0 software.

NALM6 cells = assay: NALM6 subcutaneous tumors in SCID-Beige mice; type: in vivo; settings: paclitaxel 5 mg/kg and 20 mg/kg
Procedure: NALM6 subcutaneous tumors: Mice were randomized into three groups of five mice each—(i) Control vehicle, (ii) 5 mg/kg and (iii) 20 mg/kg of paclitaxel.

NALM6 ADR cells = tested on: NALM6 ADR cells
From the text: Cells: NALM6 (ATCC) and NALM6 ADR (ATCC), B cell precursor lymphoblastic leukemia cell lines used in this study. NALM6 ADR is a multidrug resistant cell line derived from NALM6 cells.
Mice: Sixty-five 5-6-weeks-old female SCID-Beige mice (Charles River) were used in this study.
Inoculation-2×10^6 cells diluted in PBS:Matrigel (1:1) were subcutaneously injected using a 27G insulin syringe into fifty anesthetized 5-6-week-old female SCID-Beige mice under sterile conditions.
NALM6 ADR subcutaneous tumors: Mice were randomized into nine groups of five mice each—(i) Control isotype IgG1 15 mg/kg, (ii) Control isotype IgG1 15 mg/kg and 5 mg/kg of paclitaxel, (iii) Control isotype IgG1 15 mg/kg and 20 mg/kg of paclitaxel, (iv) BisP1.1 15 mg/kg, (v) BisP1.1 15 mg/kg and 5 mg/kg of paclitaxel, (vi) BisP1.1 15 mg/kg and 20 mg/kg of paclitaxel (vii) Valspodar 20 mg/kg (viii) Valspodar 20 mg/kg and 5 mg/kg of paclitaxel and (ix) Valspodar 20 mg/kg and […]. Antibody, Valspodar and paclitaxel were dosed intraperitoneally twice a week for four consecutive weeks. Antibody/valspodar were injected at least 4 hours prior to paclitaxel injection. Paclitaxel preparation: Since paclitaxel is poorly soluble, a master stock of 50 mg/ml was prepared in absolute ethanol:Kolliphor (1:1). Prior to injection the stock was diluted to recommended doses of 5 mg/kg or 20 mg/kg with PBS maintaining a ratio of (1:16).
Measurements: Tumor measurements were done thrice a week using a calibrated Vernier Caliper and tumor volume calculated as per the formula ½*L*S*S where L is the long axis and s is the short axis of the tumor. Body weights were recorded before treatment started and were continuously monitored throughout the study. Animal survival was evaluated from the first day of treatment until death. To avoid suffering, mice were euthanized when turning moribund according to the above-mentioned predefined criteria: rapid weight loss, loss of ability to ambulate, labored respiration, or inability to drink or feed.
Statistics: Tumor volume and body weights were compared between different experimental groups using exact one-way analysis of variance (ANOVA). Kaplan-Meier survival curves were compared between different treatment groups using the log-rank (Mantel-Cox) test. Statistical analyses were performed using Graph Pad Prism (GraphPad, San Diego, CA, USA) software. The level of significance was set at p<0.05 for all analyses.

[3] = Single dose cynomolgus monkey toxicity study; type: in vivo, cynomolgus monkeys (Macaca fascicularis); settings: post infusion; paclitaxel 2 mg/kg
From the text: Fifteen cynomolgus monkeys (Macaca fascicularis) were enrolled in a single dose study to evaluate KbisP1.1 toxicity.

[4] = biological target: T1, PDL1 (293T cells overexpressing PDL1) (Homo sapiens, UniProt Q9NZQ7); assay: PDL1 binding using 293T cells overexpressing PDL1
T1 construct: expressed in transfected cells; host or cells: 293T

[5] = biological target: MDR1 (293T cells overexpressing MDR1) (Homo sapiens, UniProt P08183)
Procedure: Binding specificity of the mAbs, Fab and Bispecific IgG1 was tested by FACS using 293T cell lines naturally expressing CD47, 293T naïve cells overexpressing human ABCB1 target, 293T naïve cells having ABCB1 knocked down using Lentiviral RNA vectors, CD47 knock out 293T cells and CD47 knock out 293T cells overexpressing human ABCB1. […] The cells were washed three times with FACS buffer (PBS containing 0.5% BSA). Alexa647 labeled goat anti-human antibody was added as a secondary antibody, and the samples were incubated on ice for another 1 hour. Samples were washed and analyzed using a BD FACS Canto (BD Biosciences).
FACS measurement for MDR1 binding was performed as described in Example 1.

T1 sequence (Q9NZQ7 19-290): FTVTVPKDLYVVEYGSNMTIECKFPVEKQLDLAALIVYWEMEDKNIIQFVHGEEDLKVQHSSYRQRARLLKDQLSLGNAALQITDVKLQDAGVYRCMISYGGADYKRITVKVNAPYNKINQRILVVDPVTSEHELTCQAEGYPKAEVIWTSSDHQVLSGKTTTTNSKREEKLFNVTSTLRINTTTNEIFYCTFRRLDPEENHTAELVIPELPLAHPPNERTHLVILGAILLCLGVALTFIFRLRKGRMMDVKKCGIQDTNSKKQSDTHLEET

With “5F9/MRK16: anti-CD47 antibody with two 5F9 heavy chains and two MRK16 light chains” the “effect on tumor volume with paclitaxel (chemosensitization)” value [1] was “not observed”, the “effect on tumor volume without paclitaxel” value [1] was “no significant effect on tumor volume” and the “binding to human erythrocytes” value [2] was “does not significantly bind”. The “binding to cynomolgus erythrocytes” value (cynomolgus RBCs) was “does not significantly bind”.
With “15D3/MRK16: anti-MDR1 antibody with two 15D3 heavy chains and two MRK16 light chains” the “effect on tumor volume with paclitaxel (chemosensitization)” value [1] was “rendered the chemoresistant N6ADR cells sensitive to paclitaxel” and the “effect on tumor volume without paclitaxel” value [1] was “no significant effect on tumor volume”.
With `CC[C@]1(O)C[C@H]2CN(CCc3c([nH]c4ccccc34)[C@@](C(=O)OC)(c3cc4c(cc3OC)N(C=O)[C@H]3[C@@](O)(C(=O)OC)[C@H](OC(C)=O)[C@]5(CC)C=CCN6CC[C@]43[C@@H]65)C2)C1` [Vincristine alone, vincristine] the IC50 (N6/ADR cells) was 543 nM.
For `CC(=O)O[C@H]1C(=O)[C@@]2(C)[C@H]([C@H](OC(=O)c3ccccc3)[C@]3(O)C[C@H](OC(=O)[C@H](O)[C@@H](NC(=O)c4ccccc4)c4ccccc4)C(C)=C1C3(C)C)[C@]1(OC(C)=O)CO[C@@H]1C[C@@H]2O` [paclitaxel, reference compound], the tumor growth inhibition (NALM6 cells) was “significant (p<0.0001) tumor growth inhibition”, the tumor growth inhibition (NALM6 ADR cells; paclitaxel 5 mg/kg) was “significantly less tumor growth inhibition” and the tumor growth inhibition (NALM6 ADR cells; paclitaxel 20 mg/kg) was “modest inhibition”. The “erythema at the infusion site” value [3] was “minimal erythema”.
In the case of `C/C=C/C[C@@H](C)C(=O)[C@H]1C(=O)N[C@@H](C(C)C)C(=O)N(C)CC(=O)N(C)[C@@H](CC(C)C)C(=O)N[C@@H](C(C)C)C(=O)N(C)[C@@H](CC(C)C)C(=O)N[C@@H](C)C(=O)N[C@H](C)C(=O)N(C)[C@@H](CC(C)C)C(=O)N(C)[C@@H](CC(C)C)C(=O)N(C)[C@@H](C(C)C)C(=O)N1C` [valspodar, reference compound], the body weight (NALM6 ADR cells; valspodar result in combination with paclitaxel 20 mg/kg) is reported as “significant reduction in body weight”.
Compound atezolizumab has an EC50 [4] of 0.29 nM.
In the case of necitumumab, the “binding to MDR1 by FACS” value [5] is reported as “did not show significant binding”.
